Experimental data: the NIST ThermoML archive (doi:10.1016/j.jct.2016.03.026)

Test: xn = mol fraction of the nth substance listed
Conditions: Fluid (supercritical or subcritical phases); for mass density: Vibrating tube method; for speed of sound: Frequency=5 MHz, Pulse-echo method

O=C=O [carbon dioxide] + CO
Conditions | mass density [kg/m3] | speed of sound [m/s]
263.15 K, 19700 kPa, x1 = 0.97 | 1052.08 | –
263.15 K, 19725 kPa, x1 = 0.97 | 1052.13 | –
263.15 K, 19750 kPa, x1 = 0.97 | 1052.26 | –
263.15 K, 19775 kPa, x1 = 0.97 | 1052.28 | –
263.15 K, 19800 kPa, x1 = 0.97 | 1052.34 | –
263.15 K, 19825 kPa, x1 = 0.97 | 1052.45 | –
263.15 K, 19850 kPa, x1 = 0.97 | 1052.5 | –
263.15 K, 19875 kPa, x1 = 0.97 | 1052.59 | –
263.15 K, 19900 kPa, x1 = 0.97 | 1052.67 | –
263.15 K, 19925 kPa, x1 = 0.97 | 1052.75 | –
263.15 K, 19950 kPa, x1 = 0.97 | 1052.83 | –
263.15 K, 19975 kPa, x1 = 0.97 | 1052.91 | –
263.15 K, 20000 kPa, x1 = 0.97 | 1052.99 | –
263.16 K, 3280 kPa, x1 = 0.97 | – | 626.2
263.16 K, 3800 kPa, x1 = 0.97 | – | 633.5
263.16 K, 5050 kPa, x1 = 0.97 | – | 649.7
263.16 K, 6020 kPa, x1 = 0.97 | – | 661.8
263.16 K, 6170 kPa, x1 = 0.97 | – | 664.3
263.16 K, 8100 kPa, x1 = 0.97 | – | 687.5
263.16 K, 10020 kPa, x1 = 0.97 | – | 706.8
263.16 K, 14960 kPa, x1 = 0.97 | – | 752.4
263.16 K, 19890 kPa, x1 = 0.97 | – | 792.8
263.16 K, 24920 kPa, x1 = 0.97 | – | 829.4
263.16 K, 29960 kPa, x1 = 0.97 | – | 862.5
263.16 K, 34890 kPa, x1 = 0.97 | – | 892.6
263.16 K, 39940 kPa, x1 = 0.97 | – | 921
263.16 K, 44890 kPa, x1 = 0.97 | – | 947
263.16 K, 49990 kPa, x1 = 0.97 | – | 972.3
263.16 K, 54910 kPa, x1 = 0.97 | – | 995.6
263.16 K, 60010 kPa, x1 = 0.97 | – | 1018.3
263.16 K, 65090 kPa, x1 = 0.97 | – | 1039.8
263.16 K, 69970 kPa, x1 = 0.97 | – | 1059.9
263.16 K, 75000 kPa, x1 = 0.97 | – | 1079.5
263.16 K, 80150 kPa, x1 = 0.97 | – | 1098.9
263.16 K, 90130 kPa, x1 = 0.97 | – | 1134.4
263.16 K, 100140 kPa, x1 = 0.97 | – | 1168
263.16 K, 110060 kPa, x1 = 0.97 | – | 1199.3
263.16 K, 119960 kPa, x1 = 0.97 | – | 1228.9
263.16 K, 140000 kPa, x1 = 0.97 | – | 1284.7
263.16 K, 159900 kPa, x1 = 0.97 | – | 1335.8
263.16 K, 179990 kPa, x1 = 0.97 | – | 1383.3
263.16 K, 194490 kPa, x1 = 0.97 | – | 1415.5
263.18 K, 6060 kPa, x1 = 0.7534 | – | 735.8
263.18 K, 9710 kPa, x1 = 0.7534 | – | 770.9
263.18 K, 14730 kPa, x1 = 0.7534 | – | 813.5
263.18 K, 14950 kPa, x1 = 0.9803 | – | 747.6
263.18 K, 20160 kPa, x1 = 0.7534 | – | 854.1
263.18 K, 24940 kPa, x1 = 0.7534 | – | 886.4
263.18 K, 30090 kPa, x1 = 0.7534 | – | 918.5
263.18 K, 34860 kPa, x1 = 0.9803 | – | 887.4
263.18 K, 35000 kPa, x1 = 0.7534 | – | 946.9
263.18 K, 39910 kPa, x1 = 0.9803 | – | 916.3
263.18 K, 40020 kPa, x1 = 0.7534 | – | 974
263.18 K, 44820 kPa, x1 = 0.7534 | – | 998.5
263.18 K, 44980 kPa, x1 = 0.9803 | – | 943.5
263.18 K, 49950 kPa, x1 = 0.7534 | – | 1023.2
263.18 K, 50170 kPa, x1 = 0.9803 | – | 969
263.18 K, 55000 kPa, x1 = 0.9803 | – | 992.2
263.18 K, 55090 kPa, x1 = 0.7534 | – | 1046.8
263.18 K, 59880 kPa, x1 = 0.7534 | – | 1067.8
263.18 K, 60140 kPa, x1 = 0.9803 | – | 1015.5
263.18 K, 64760 kPa, x1 = 0.9803 | – | 1035.7
263.18 K, 64880 kPa, x1 = 0.7534 | – | 1088.8
263.18 K, 70160 kPa, x1 = 0.9803 | – | 1058.2
263.18 K, 70360 kPa, x1 = 0.7534 | – | 1110.8
263.18 K, 75340 kPa, x1 = 0.7534 | – | 1130
263.18 K, 75410 kPa, x1 = 0.9803 | – | 1078.8
263.18 K, 79750 kPa, x1 = 0.9803 | – | 1095.2
263.18 K, 80260 kPa, x1 = 0.7534 | – | 1148.4
263.18 K, 89760 kPa, x1 = 0.7534 | – | 1182.3
263.18 K, 89940 kPa, x1 = 0.9803 | – | 1132.1
263.18 K, 99680 kPa, x1 = 0.9803 | – | 1165
263.18 K, 100040 kPa, x1 = 0.7534 | – | 1216.8
263.18 K, 109950 kPa, x1 = 0.9803 | – | 1197.7
263.18 K, 110590 kPa, x1 = 0.7534 | – | 1250.3
263.18 K, 119810 kPa, x1 = 0.7534 | – | 1278.1
263.18 K, 120700 kPa, x1 = 0.9803 | – | 1230.1
263.18 K, 140780 kPa, x1 = 0.9803 | – | 1286.1
263.18 K, 141280 kPa, x1 = 0.7534 | – | 1338.3
263.18 K, 159890 kPa, x1 = 0.7534 | – | 1386.5
263.18 K, 160950 kPa, x1 = 0.9803 | – | 1337.6
263.18 K, 179550 kPa, x1 = 0.7534 | – | 1433.7
263.18 K, 179550 kPa, x1 = 0.9803 | – | 1382.1
263.19 K, 6000 kPa, x1 = 0.8502 | – | 691.2
263.19 K, 9880 kPa, x1 = 0.8502 | – | 731.2
263.19 K, 14650 kPa, x1 = 0.8502 | – | 773.8
263.19 K, 19850 kPa, x1 = 0.8502 | – | 814.7
263.19 K, 24990 kPa, x1 = 0.8502 | – | 850.9
263.19 K, 29690 kPa, x1 = 0.8502 | – | 881.1
263.19 K, 35020 kPa, x1 = 0.8502 | – | 912.8
263.19 K, 40080 kPa, x1 = 0.8502 | – | 940.7
263.19 K, 44910 kPa, x1 = 0.8502 | – | 965.8
263.19 K, 50170 kPa, x1 = 0.8502 | – | 991.7
263.19 K, 55230 kPa, x1 = 0.8502 | – | 1015.1
263.19 K, 60100 kPa, x1 = 0.8502 | – | 1036.7
263.19 K, 64650 kPa, x1 = 0.8502 | – | 1056
263.19 K, 70030 kPa, x1 = 0.8502 | – | 1078
263.19 K, 74380 kPa, x1 = 0.8502 | – | 1095.2
263.19 K, 80050 kPa, x1 = 0.8502 | – | 1116.4
263.19 K, 90050 kPa, x1 = 0.8502 | – | 1152.6
263.19 K, 100540 kPa, x1 = 0.8502 | – | 1187.6
263.19 K, 110230 kPa, x1 = 0.8502 | – | 1218.2
263.19 K, 120050 kPa, x1 = 0.8502 | – | 1247.8
263.19 K, 140150 kPa, x1 = 0.8502 | – | 1303.4
263.19 K, 150270 kPa, x1 = 0.8502 | – | 1329.1
273.15 K, 4600 kPa, x1 = 0.97 | 940.38 | –
273.15 K, 4625 kPa, x1 = 0.97 | 940.6 | –
273.15 K, 4650 kPa, x1 = 0.97 | 940.77 | –
273.15 K, 4675 kPa, x1 = 0.97 | 941.01 | –
273.15 K, 4700 kPa, x1 = 0.97 | 941.48 | –
273.15 K, 4725 kPa, x1 = 0.97 | 941.61 | –
273.15 K, 4750 kPa, x1 = 0.97 | 941.7 | –
273.15 K, 4775 kPa, x1 = 0.97 | 942 | –
273.15 K, 4800 kPa, x1 = 0.97 | 942.41 | –
273.15 K, 4825 kPa, x1 = 0.97 | 942.58 | –
273.15 K, 4850 kPa, x1 = 0.97 | 942.76 | –
273.15 K, 4875 kPa, x1 = 0.97 | 942.95 | –
273.15 K, 4900 kPa, x1 = 0.97 | 943.14 | –
273.15 K, 4925 kPa, x1 = 0.97 | 943.32 | –
273.15 K, 4950 kPa, x1 = 0.97 | 943.48 | –
273.15 K, 4975 kPa, x1 = 0.97 | 943.65 | –
273.15 K, 5000 kPa, x1 = 0.97 | – | 570.5
